Assay results as given in ChEMBL document CHEMBL3779773, “A unique macrolactam derivative via a [4+6]-cycloaddition from Streptomyces niveus” (Bioorg Med Chem Lett, 2016).
Values after ≈ are worked out from the molar mass of the structure shown. Active and inactive are the calls of the source. No cut-off for these calls is given here.

Key:
Aspergillus niger = assay: Antimicrobial activity against Aspergillus niger by micro dilution method; type: functional, organism-based
Candida albicans = assay: Antimicrobial activity against Candida albicans by micro dilution method; type: functional, organism-based
[1] = Cytotoxicity against human […] cells assessed as growth inhibition after 72 hrs by MTT assay; type: functional, cell-based
Bacillus subtilis = assay: Antimicrobial activity against Bacillus subtilis after 24 hrs using MTT reagent by micro dilution method; type: functional
BGC832 [2] = assay: Cytotoxicity against human […] cells assessed as cell viability after 24 to 72 hrs by MTT assay; type: functional, cell-based
BGC832 [3] = assay: Cytotoxicity against human […] cells assessed as cell viability at 1.2 to 100 uM by MTT assay; type: functional, cell-based; conditions: TDE = time-dependent effect
HepG2 [4] = assay: Cytotoxicity against human HepG2 cells assessed as growth inhibition after 72 hrs by MTT assay; type: functional, cell-based; conditions: HepG2, 72 h
Caco-2 [5] = assay: Cytotoxicity against human Caco2 cells assessed as cell viability at 1.2 to 100 uM by MTT assay; type: functional, cell-based; conditions: TDE = time-dependent effect
Caco-2 [6] = assay: Cytotoxicity against human Caco2 cells assessed as cell viability after 24 to 72 hrs by MTT assay; type: functional, cell-based
HepG2 [7] = assay: Cytotoxicity against human HepG2 cells assessed as cell viability after 24 to 72 hrs by MTT assay; type: functional, cell-based
[8] = Cytotoxicity against human H460 cells assessed as growth inhibition after 72 hrs by MTT assay; type: functional, cell-based; conditions: NCI-H460, 72 h
HepG2 [9] = assay: Cytotoxicity against human HepG2 cells assessed as cell viability at 1.2 to 100 uM by MTT assay; type: functional, cell-based; conditions: TDE = time-dependent effect
[10] = Cytotoxicity against human Caco2 cells assessed as growth inhibition after 72 hrs by MTT assay; type: functional, cell-based; conditions: Caco-2, 72 h
NCI-H460 [11] = assay: Cytotoxicity against human H460 cells assessed as cell viability after 24 to 72 hrs by MTT assay; type: functional, cell-based
[12] = Cytotoxicity against human HELF cells assessed as growth inhibition after 72 hrs by MTT assay; type: cell-based
Staphylococcus aureus = assay: Antimicrobial activity against Staphylococcus aureus after 24 hrs using MTT reagent by micro dilution method; type: functional, organism-based
HCT-116 [13] = assay: Cytotoxicity against human HCT116 cells assessed as cell viability after 24 to 72 hrs by MTT assay; type: functional, cell-based
Escherichia coli = assay: Antimicrobial activity against Escherichia coli after 24 hrs using MTT reagent by micro dilution method; type: functional, organism-based
[14] = Cytotoxicity against human HCT116 cells assessed as growth inhibition after 72 hrs by MTT assay; type: functional, cell-based; conditions: HCT-116, 72 h
HCT-116 [15] = assay: Cytotoxicity against human HCT116 cells assessed as cell viability at 1.2 to 100 uM by MTT assay; type: functional, cell-based; conditions: TDE = time-dependent effect
NCI-H460 [16] = assay: Cytotoxicity against human H460 cells assessed as cell viability at 1.2 to 100 uM by MTT assay; type: functional, cell-based; conditions: TDE = time-dependent effect
[17] = Acute toxicity in ip dosed mouse; type: organism-based; conditions: in vivo

CCC/C=C/CC1CC(O)[C@@H](O)[C@@H]2/C(C)=C/[C@H]3C=C[C@H]4O[C@H]4[C@@H]3/C(C)=C/C=C\[C@@H]2C(=O)N1 (some centres not stated)
Activity (Aspergillus niger): inactive | Activity (Candida albicans): inactive | IC50 [1]: 13.1 µM | MIC (Bacillus subtilis): 43.9 µg/mL (≈ 99.9 µM) | Activity (BGC832 [2]): Dose-dependent effect | Activity (BGC832 [3]): tde | IC50 (HepG2 [4]): 15 µM | Activity (Caco-2 [5]): tde | Activity (Caco-2 [6]): Dose-dependent effect | Activity (HepG2 [7]): Dose-dependent effect | IC50 [8]: 3.76 µM | Activity (HepG2 [9]): tde | IC50 [10]: 15 µM | Activity (NCI-H460 [11]): Dose-dependent effect | IC50 [12]: 46.5 µM | Activity (Staphylococcus aureus): inactive | Activity (HCT-116 [13]): Dose-dependent effect | Activity (Escherichia coli): inactive | IC50 ([14]; read-out: IC50): 8.03 µM | Activity (HCT-116 [15]): tde | Activity (NCI-H460 [16]): tde

COc1cccc2c1C(=O)c1c(O)c3c(c(O)c1C2=O)C[C@@](O)(C(=O)CO)C[C@@H]3O[C@H]1C[C@H](N)[C@H](O)[C@H](C)O1 [DOXORUBICIN]
IC50 [1]: 1.48 µM | IC50 [8]: 0.98 µM | IC50 [10]: 0.96 µM | IC50 [12]: 7.31 µM | IC50 [14]: 0.74 µM

CCCCCCC1CC(=O)CCCC(O)CC(=O)C2=C(O)C(OC3CC(OC)C(O)C(C)O3)CC2\C=C(C)/C=C/C=C/C(=O)N1 (configuration not stated)
LD50 [17]: > 100 mg/kg
